Entries after “also recorded” stand apart in the source; their conditions may differ.
Experiments:
human CYP2C19 = human CYP2C19 (Homo sapiens, UniProt P33261); assay: Oxidation of omeprazole by human CYP2C19, metabolites by HPLC and LC-MS; format: in vitro ADME; conditions: human CYP2C19, 100 μM omeprazole, NADPH-generating system, 37° C., 30 minutes
Method: (§1) CYP102A1 50 pmol and 100 μM substrates were put into 100 mM of a potassium phosphate buffer (pH 7.4) 0.25 me and were subjected to a typical steady state reaction. In order to initiate the reaction, an NADPH-generating system (final concentration: 10 mM glucose 6-phosphate, 0.5 mM NADP^+, and 1 IU yeast glucose 6-phosphate dehydrogenase per 1 me) was added. 20 mM omeprazole solution was prepared by DMSO, and diluted with an enzyme reaction solution so that an organic solvent has the final concentration of 1%(v/v) or less. For measuring an activity of human CYP2C19, 50 pmol P450, 100 pmol NADPH-P450 reductase (CPR), 100 pmol cytochrome b5 and 45 μM L-α-dilauroyl-sn-glycero-3-phosphocholine (DLPC) were used instead of 50 pmol CYP102A1. The reaction solution was reacted at 37 for 30 minutes, and the reaction was terminated by dichloromethane prepared in a cold state with twice amounts of ice.
(§2) The reaction mixture was centrifuged to remove the supernatant, the solvent thereof was evaporated under nitrogen gas (see Vickers et al., 1990), and the obtained mixture was analyzed by HPLC (see Piver et al., 2004). A sample (30 μl) was injected into Gemini C18 column (4.6 mm×150 mm, 5 μm, Phenomenex, Torrance, Calif.). 30% acetonitrile was used as a mobile phase.

CYP102A1 (P450 BM3) = conditions: bacterial wild-type CYP102A1 and mutants, 100 μM omeprazole, NADPH-generating system
Method: as §1, §2

[1] = Total turnover number (TTN) of omeprazole oxidation by CYP102A1 enzymes, HPLC; format: biochemical, Bacillus megaterium; conditions: 0.1 mM to 2 mM omeprazole, 30 minutes up to 5 hours, NADPH-generating system
Method: 30% acetonitrile was used as a mobile phase.
It could be confirmed from the results of FIG. 5 that the turnover number of the wild-type CYP102A1, 17 kinds of mutants thereof, and 6 kinds of mutant kimeras varied at a large range. In addition, the total turnover number (TTNs) (mol product/mol catalyst) of the CYP102A1 mutant was investigated. In order to measure TTNs of the CYP102A1 mutant, 0.1 mM to 2 mM omeprazole was used, and the reaction was performed with an interval from 30 minutes up to 5 hours. The production rate of the omeprazole metabolite was determined by HPLC.

human CYP2C19, sequence (P33261 whole entry): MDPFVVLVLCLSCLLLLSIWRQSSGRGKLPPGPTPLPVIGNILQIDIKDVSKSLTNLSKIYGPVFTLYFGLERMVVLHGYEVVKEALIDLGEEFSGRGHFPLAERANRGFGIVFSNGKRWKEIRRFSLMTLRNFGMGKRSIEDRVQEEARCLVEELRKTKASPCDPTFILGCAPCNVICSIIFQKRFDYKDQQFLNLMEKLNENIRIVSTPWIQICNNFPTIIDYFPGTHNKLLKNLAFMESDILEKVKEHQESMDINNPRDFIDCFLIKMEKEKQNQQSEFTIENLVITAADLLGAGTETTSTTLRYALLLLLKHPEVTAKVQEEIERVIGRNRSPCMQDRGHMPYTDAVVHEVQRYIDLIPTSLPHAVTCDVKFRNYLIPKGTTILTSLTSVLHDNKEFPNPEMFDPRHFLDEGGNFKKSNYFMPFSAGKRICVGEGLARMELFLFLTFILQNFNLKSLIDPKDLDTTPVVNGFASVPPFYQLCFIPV

| Molecule | main metabolites produced from omeprazole (human CYP2C19) | main product produced from omeprazole (CYP102A1 (P450 BM3)) | total turnover number (TTNs), activity towards omeprazole [1] |
| --- | --- | --- | --- |
| COc1ccc2[nH]c([S+]([O-])Cc3ncc(C)c(OC)c3C)nc2c1 (racemic) [omeprazole] | 3′-hydroxyomeprazole and 5′-hydroxyomeprazole | 5′-hydroxyomeprazole | – |
| wild-type CYP102A1: bacterial cytochrome P450 BM3 (CYP102A1) from Bacillus megaterium, SEQ ID NO: 16 (protein) MTIKEMPQPKTFGELKNLPLLNTDKPVQALMKIADELGEIFKFEAPGRVTRYLSSQRLIKEACDESRFDKNLSQALKFVRDFAGDGLFTSWTHEKNWKKAHNILLPSFSQQAMKGYHAMMVDIAVQLVQKWERLNADEHIEVPEDMTRLTLDTIGLCGFNYRFNSFYRDQPHPFITSMVRALDEAMNKLQRANPDDPAYDENKRQFQEDIKVMNDLVDKIIADRKASGEQSDDLLTHMLNGKDPETGEPLDDENIRYQIITFLIAGHETTSGLLSFALYFLVKNPHVLQKAAEEAARVLVDPVPSYKQVKQLKYVGMVLNEALRLWPTAPAFSLYAKEDTVLGGEYPLEKGDELMVLIPQLHRDKTIWGDDVEEFRPERFENPSAIPQHAFKPFGNGQRACIGQQFALHEATLVLGMMLKHFDFEDHTNYELDIKETLTLKPEGFVVKAKSKKIPLGGIPSPSTEQSAKKVRKKAENAHNTPLLVLYGSNMGTAEGTARDLADIAMSKGFAPQVATLDSHAGNLPREGAVLIVTASYNGHPPDNAKQFVDWLDQASADEVKGVRYSVFGCGDKNWATTYQKVPAFIDETLAAKGAENIADRGEADASDDFEGTYEEWREHMWSDVAAYFNLDIENSEDNKSTLSLQFVDSAADMPLAKMHGAFSTNVVASKELQQPGSARSTRHLEIELPKEASYQEGDHLGVIPRNYEGIVNRVTARFGLDASQQIRLEAEEEKLAHLPLAKTVSVEELLQYVELQDPVTRTQLRAMAAKTVCPPHKVELEALLEKQAYKEQVLAKRLTMLELLEKYPACEMKFSEFIALLPSIRPRYYSISSSPRVDEKQASITVSVVSGEAWSGYGEYKGIASNYLAELQEGDTITCFISTPQSEFTLPKDPETPLIMVGPGTGVAPFRGFVQARKQLKEQGQSLGEAHLYFGCRSPHEDYLYQEELENAQSEGIITLHTAFSRMPNQPKTYVQHVMEQDGKKLIELLDQGAHFYICGDGSQMAPAVEATLMKSYADVHQVSEADARLWLQQLEEKGRYAKDVWAG | – | – | the activity with respect to the omeprazole was hardly shown; also recorded: hardly had an activity with respect to omeprazole |
